# Reference: patent publication US5679787A, “Process for isomerization of compound of aldose structure into compound of ketose structure, and isomerization agent or accelerator used therein” (priority 1992, dated 1997)
# Legend:
# [1] = Isomerization without enzyme (Example 3), xylose; settings: remark (2): reaction time 6 h, initial pH 10.0-10.6; for Isomerization ratio Xylose NaOH: blank 3.9-19.5%; for Isomerization ratio Xylose Electrolytic water: blank 0.4-1.2%
# Method: [The procedure below names another target; the source says it served here with some conditions changed.] (§1) 200 μl of the 14% or 28% glucose solution and 200 μl of the organogermanium compound solution (pH 8.00 or 8.53) were placed in a small test tube. Also, 200 μl of the 14% or 28% glucose solution and 200 μl of the weakly alkaline electrolytic water were placed in a small test tube. Each test tube was thoroughly shaken and then placed in a water bath of 80° C. to give rise to a reaction. 1-3 hours later, 50 μl of the reaction mixture was added to 50 μl of 0.5N HClO4 to terminate the reaction. Thereafter, the mixture was diluted 100-fold with deionized water to determine the amount of formed fructose and the amount of residual glucose by high-performance liquid chromatography using 7A (a column) manufactured by Shimadzu Corp.
# Other compounds represented by formula (I) were subjected to 3-hour isomerization in the same manner as in Example 2.
# [2] = Isomerization without enzyme (Example 3), arabinose; settings: remark (2):, initial pH 10.0-10.6; for Isomerization ratio Arabinose NaOH: blank 3.9-19.5%; for Isomerization ratio Arabinose Electrolytic water: blank 0.4-1.2%
# [3] = Isomerization without enzyme (Example 3), mannose; settings: remark (2): reaction time 6 h, initial pH 10.0-10.6; for Isomerization ratio Mannose NaOH: blank 3.9-19.5%; for Isomerization ratio Mannose Electrolytic water: blank 0.4-1.2%
# [4] = Isomerization without enzyme (Example 3), glucose; settings: remark (1): initial pH 8.0-8.53; for Isomerization ratio Glucose NaOH: blank 32.3%; for Isomerization ratio Glucose Electrolytic water: blank 2.1-3.1%
# Method: as §1, with “1-3 hours later, 50 μl of the reaction mixture was added to 50 μl of 0.5N HClO4 to terminate the reaction.” left out, “Corp. […]” for “Corp.”
# [5] = Isomerization without enzyme (Example 3), maltose; settings: remark (3): reaction time 6 h, initial pH 10.0-11.0; for Isomerization ratio Maltose NaOH: blank 34.0-38.6%; for Isomerization ratio Maltose Electrolytic water: blank 0-0.4%
# [6] = Isomerization without enzyme (Example 3), ribose; settings: remark (2): reaction time 6 h, initial pH 10.0-10.6; for Isomerization ratio Ribose NaOH: blank 3.9-19.5%; for Isomerization ratio Ribose Electrolytic water: blank 0.4-1.2%
# [7] = Isomerization without enzyme (Example 3), lactose; settings: remark (3): reaction time 6 h, initial pH 10.0-11.0; for Isomerization ratio Lactose NaOH: blank 34.0-38.6%; for Isomerization ratio Lactose Electrolytic water: blank 0-0.4%
# glucose isomerase = assay: Enzymatic isomerization of glucose into fructose in presence of organogermanium compound (Example 1); format: biochemical, Streptomyces griseofuscus S-41; settings: 60° C., pH 8.0, substrate solution 40% glucose and 1.2M organogermanium compound, blank 50%
# Method: A solution containing 40% glucose and 1.2M organogermanium compound was prepared according to the following procedure. 0.8 g of anhydrous glucose was dissolved in 0.8 ml of deionized water. To the solution was added, in small portions, 0.407 g of the organogermanium compound (1) as an isomerization accelerator of the present invention [a compound represented by formula (II) wherein n=1, R1 =R2 =R3 and X1 =OH] while the pH of the solution was maintained at very weak alkalinity, to completely dissolve the compound in the solution. Thereto was added 4.9 mg of magnesium sulfate, and the pH of the resulting mixture was adjusted to 8.0. Then, deionized water was added to make the total volume 2.0 ml, whereby a substrate solution was prepared.
# Two other substrate solutions containing the organogermanium compounds (18) [a compound represented by formula (II) wherein n=1, R1 =R2 =H, R3 =NH2 and X1 =OH] and (23) [a compound represented by formula (II) wherein n=1, R1 =H, R2 =C6 H5, R3 =NH2 and X1 =OH], respectively, were prepared in the same manner as above except that the organogermanium compounds (18) and (23) were used in amounts of 0.443 g and 0.638 g, respectively (these amounts corresponded to 1.2M of germanium).
# An isomerization enzyme (glucose isomerase) extracted from the cells of Streptomyces griseofuscus S-41 was purified according to a known method using an ion exchange column, a gel filtration column or the like, until a single band was obtained electrophoretically. The resulting purified enzyme was used as a standard enzyme.
# In a small test tube were placed 0.7 ml of the above substrate solution, 0.1 ml of a 200 mM MOPS buffer solution (pH 8.0) and 0.2 ml of a solution containing the above-prepared standard enzyme (5.69 mg/ml). […] The amount of formed fructose in the microvial was determined by high-performance liquid chromatography using a column [LC7A, SCR-101 (N) manufactured by Shimadzu Corp.] to examine the change with time, of ratio of isomerization of glucose into fructose.
# [8] = Isomerization of glucose without enzyme, weakly alkaline electrolytic water or NaOH (Example 2)
# Method: Water was passed through an apparatus for electrolysis [e.g. Microcluster (trade name) manufactured by Asahi Glass Co., Ltd.]. The alkaline portion of the resulting electrolytic water was taken to use as a weakly alkaline electrolytic water.
# 14 g or 28 g of anhydrous glucose was dissolved in about 80 ml of the weakly alkaline electrolytic water prepared above. The same electrolytic water was further added to make the total volume 100 ml, whereby a 14% glucose solution and a 28% glucose solution were prepared. The 14% glucose solution had pH 9.1 and the 28% glucose solution had pH 8.61, right after the preparation.
# 1.847 g of the organogermanium compound (18) was weighed and added to about 2 ml of deionized water. The mixture was made weakly alkaline (pH 8.00 or 8.53) with a small amount of sodium hydroxide. The same deionized water was further added to make the total volume of 3 ml. The final concentration of the compound (18) in the solution was 1.67M.
# as §1
SMILES,Isomerization ratio Xylose NaOH [1] [%],Isomerization ratio Xylose Electrolytic water [1] [%],Isomerization ratio Arabinose NaOH [2] [%],Isomerization ratio Arabinose Electrolytic water [2] [%],Isomerization ratio Mannose NaOH [3] [%],Isomerization ratio Mannose Electrolytic water [3] [%],Isomerization ratio Glucose NaOH [4] [%],Isomerization ratio Glucose Electrolytic water [4] [%],Isomerization ratio Maltose NaOH [5] [%],Isomerization ratio Maltose Electrolytic water [5] [%],Isomerization ratio Ribose NaOH [6] [%],Isomerization ratio Ribose Electrolytic water [6] [%],Isomerization ratio Lactose NaOH [7] [%],Isomerization ratio Lactose Electrolytic water [7] [%],isomerization ratio in equilibrium (glucose isomerase) [%],"Isomerization ratio (%) ([8]; Run 1 (Ge), glucose concentration 14%, pH of reaction mixture 7.17, electrolytic water, 80° C., 1-3 hours)","Isomerization ratio (%) ([8]; Run 3 (Ge), glucose concentration 7%, pH of reaction mixture 7.52, electrolytic water, 80° C., 1-3 hours)","Isomerization ratio (%) ([8]; Run 5 (Ge), glucose concentration 14%, pH of reaction mixture 7.81, electrolytic water, 80° C., 1-3 hours)","Isomerization ratio (%) ([8]; Run 7 (Ge), glucose concentration 7%, pH of reaction mixture 8.15, electrolytic water, 80° C., 1-3 hours)","Isomerization ratio (%) ([8]; Run 9 (Na, Ge), sodium hydroxide, glucose concentration 14%, pH of reaction mixture 8.61, 80° C.)"
C[C](C)(CC(=O)O)[Ge](=[O])[O][Ge](=[O])[C](C)(C)CC(=O)O [Compound 5],20.3,6.1,17.8,3.4,20.5,9.7,93.4,75.3,69.4,38.4,37.6,8.6,68.8,17.2,–,–,–,–,–,–
NC([CH2][Ge](=[O])[O][Ge](=[O])[CH2]C(N)C(=O)O)C(=O)O (centres unmarked) [Compound 18],–,–,–,–,–,–,–,–,–,–,–,–,–,–,80,48.0,73.1,65.0,94.7,98.9
O=C(O)C[CH](c1ccccc1)[Ge](=[O])[O][Ge](=[O])[CH](CC(=O)O)c1ccccc1 (centres unmarked) [Compound 6],33.2,8.3,24.4,13.4,22.8,16.4,94.8,83.8,69.3,20.0,40.1,11.3,73.6,15.5,–,–,–,–,–,–
C[CH](CC(=O)O)[Ge](=[O])[O][Ge](=[O])[CH](C)CC(=O)O (centres unmarked) [Compound 2],20.3,7.2,20.3,10.1,22.6,11.4,97.9,95.8,67.4,44.4,41.8,12.8,68.3,43.4,–,–,–,–,–,–
CC([CH2][Ge](=[O])[O][Ge](=[O])[CH2]C(C)C(=O)O)C(=O)O (centres unmarked) [Compound 3],24.5,7.6,18.5,10.2,21.3,9.3,96.3,86.2,53.7,43.7,30.0,17.4,74.1,28.9,–,–,–,–,–,–
NC(C(=O)O)[CH](c1ccccc1)[Ge](=[O])[O][Ge](=[O])[CH](c1ccccc1)C(N)C(=O)O (centres unmarked) [Compound 23],–,–,–,–,–,–,–,–,–,–,–,–,–,–,99,–,–,–,–,–
CC(C(=O)O)[CH](C)[Ge](=[O])[O][Ge](=[O])[CH](C)C(C)C(=O)O (centres unmarked) [Compound 4],22.3,7.0,14.3,7.0,22.4,10.6,96.4,77.6,46.5,36.2,36.3,10.3,66.4,17.7,–,–,–,–,–,–
